Patent US9345655B2, “Oral care compositions” (BRIGHAM YOUNG UNIVERSITY, priority 2011, dated 2016)

What was measured:
[1] = system: TNF-a; experiment: Anti-inflammatory activity, cytokine generation in HKPG-stimulated U937 macrophages; type: cell-based, Human; settings: 0.1 ppm; U937 macrophages stimulated with heat killed P. gingivalis
Text: (§1) The anti-inflammatory activity of a compound of Formula (II) is studied against six human inflammatory cytokines, PGE2, IL-1B, IL-6, IL-8, TNF-a, and GM-CSF in separate sets of experiments; first against PGE2, then against the five other cytokines Human monocyte U937 cells are differentiated to macrophages and then generation of cytokines is induced by stimulating the cells using heat killed P. gingivalis (HKPG, 1×10^8 cells). Different types of inflammatory cytokines are generated by U973 cells and released into the supernatant.

[2] = system: IL-1B; experiment: as above; type: cell-based, Human; settings: 0.1 ppm; U937 macrophages stimulated with heat killed P. gingivalis
Text: as §1

[3] = system: IL-6; experiment: as above; type: cell-based, Human; settings: 0.1 ppm; U937 macrophages stimulated with heat killed P. gingivalis
Text: as §1

[4] = system: bacterial culture; experiment: Minimum inhibitory concentration (MIC), serial 2-fold dilution in 96-well plate; type: cell-based; settings: overnight incubation in TSB, inoculum 0.2 OD
Description: To evaluate minimum inhibitory concentrations (MICs), the concentration of the twenty four hour culture in log phase is adjusted by diluting in tryptic soy broth (TSB) so that an optical density of 0.2 at 610nm is obtained. The bacterial culture is then ready to be used for testing.
Three solutions are prepared: (1) 1% CPC solution in ethanol; (2) 1% solution of the Compound of Formula (II) in water; and (3) 0.5% of a Compound of Formula (II) +0.5% CPC. The solutions are diluted 1:9 in TSB. They are added to a 96-well plate and a serial dilution (2-fold) is made across the plate. The bacterial inoculum at 0.2 OD, 1000, is added to every well. The plate is incubated overnight and read on a plate reader the following day.

**Q.** With CCCCCCCCNCCC[C@@H](C)[C@H]1CC[C@H]2C3[C@H](OCCCN)CC4C[C@H](OCCCN)CC[C@]4(C)[C@H]3C[C@H](OCCCN)[C@]12C (stereo partly shown) [Compound of Formula (II)] as the compound, how does the “reduction of TNF-a” value [1] read?
**A.** 80%

**Q.** What about the “reduction of IL-10 (so in the source)” value [2] of the same compound?
**A.** 21%

**Q.** What about the “reduction of IL-6” value [3] of the same compound?
**A.** 60%

**Q.** And the MIC [4]?
**A.** 0.49 µg/mL
